Test system: malignant glioma U87 cell line
Assay: WST-1 cell viability assay for PDT anti-cancer effectiveness
Type: cell-based
Settings: 50 μM Hypericin, 2 hours incubation at 37° C., U87 cells, no simultaneous light; FIG. 11a
Protocol: To maximize light transmission, a 530±15 nm LED was used to verify the improvement in PDT efficiency with a developed light-guiding adhesive patch using the malignant glioma U87 cell line.
Specifically, the anti-cancer effectiveness through PDT was verified using the WST-1 cell viability assay. During the PDT efficiency verification, initial tests were conducted to establish PDT conditions, investigating the toxicity of the photosensitizer and light exposure.

`Cc1cc(O)c2c(=O)c3c(O)cc(O)c4c5c(O)cc(O)c6c(=O)c7c(O)cc(C)c8c1c2c(c34)c(c78)c65` [Hypericin] was tested. Which “inhibition of cell viability (toxicity of the photosensitizer)” value did it give?
Its value is “No specific inhibition of cell viability”.

From patent publication US20250144442A1, “LIGHT-GUIDING ADHESIVE PATCH” (SAMSUNG LIFE PUBLIC WELFARE FOUNDATION, priority 2023, published 2025)
